Results taken from patent US20110143948A1, “MOLECULAR SIGNATURES AND BIOMARKERS ASSOCIATED WITH MELANOMA AND METHODS OF USE THEREOF” (priority 2008, published 2011).

What was measured:
Assay type in all cases: cell-based, human
[1] = system: SLC37A3; test: beta gal target cleavage assay, SLC37A3; settings: A375 cells, mimic co-transfected at 100 nM
Description: (§1) Target cleavage assays using the miRNA targets from the bioinformatics analyses above were conducted. The 3′ UTR seed sequences of putative target genes were amplified by PCR (Phusion PCR kit, Finnzymes) from human Melanocyte genomic DNA (Primers: ARL2 For-ctcctccaccccagcctgc (SEQ ID NO 92), ARL2 Rev-[…] (SEQ ID NO 93); FGF2 For-[…] (SEQ ID NO 94), FGF2 Rev-[…] (SEQ ID NO 95); RAB22A For-[…] (SEQ ID NO 96), RAB22A Rev-[…] (SEQ ID NO 97); SLC37A3 For-[…] (SEQ ID NO 98), SLC37A3 Rev-[…] (SEQ ID NO 99); TCF12 For-[…] (SEQ ID NO 100), TCF12 Rev-[…] ((SEQ ID NO 101); all primer sets containing 5′ NotI and 3′ AgeI sites). PCR products were cloned into pCR4-TOPO (Invitrogen), confirmed by sequencing, then subcloned into the 3′ UTR of the LacZ gene in pcDNA6/V5-His/LacZ (Invitrogen) using the 5′ NotI and 3′ AgeI restriction sites, and reconfirmed by sequencing (pcDNA6/LacZ/ARL2, pcDNA6/LacZ/FGF2, pcDNA6/LacZ/RAB22A, pcDNA6/LacZ/SLC37A3, and pcDNA6/LacZ/TCF12, respectively). FIG. 11 is an example of the pcDNA6/LacZ construct used within these experiments. As shown, the FGF2 target sequence may be cloned into the 3′ UTR of the LacZ gene. […]

[2] = system: KCNMA1; test: beta gal target cleavage assay, KCNMA1
[3] = system: RAB22A; test: beta gal target cleavage assay, RAB22A; settings: A375 cells, mimic co-transfected at 100 nM
Description: as §1

[4] = system: TCF12; test: beta gal target cleavage assay, TCF12; settings: A375 cells, mimic co-transfected at 100 nM; Kruskal Wallis p-value<0.001
Description: Target cleavage assays using the miRNA targets from the bioinformatics analyses above were conducted. The 3' UTR seed sequences of putative target genes were amplified by PCR (Phusion PCR kit, Finnzymes) from human Melanocyte genomic DNA (Primers: ARL2 For-[NT] (SEQ ID NO 92), ARL2 Rev-[NT] (SEQ ID NO 93); FGF2 For-[NT] (SEQ ID NO 94), FGF2 Rev-[NT] (SEQ ID NO 95); RAB22A For-[NT] (SEQ ID NO 96), RAB22A Rev-[NT] (SEQ ID NO 97); SLC37A3 For-[NT] (SEQ ID NO 98), SLC37A3 Rev-[NT] (SEQ ID NO 99); TCF12 For-[NT] (SEQ ID NO 100), TCF12 Rev-[NT] ((SEQ ID NO 101); all primer sets containing [NT] AgeI sites). PCR products were cloned into pCR4-TOPO (Invitrogen), confirmed by sequencing, then subcloned into the 3' UTR of the LacZ gene in pcDNA6/[…]/LacZ (Invitrogen) using the [NT] AgeI restriction sites, and reconfirmed by sequencing (pcDNA6/LacZ/ARL2, pcDNA6/LacZ/FGF2, pcDNA6/LacZ/RAB22A, pcDNA6/LacZ/SLC37A3, and pcDNA6/LacZ/TCF12, respectively). FIG. 11 is an example of the pcDNA6/LacZ construct used within these experiments. As shown, the FGF2 target sequence may be cloned into the 3' UTR of the LacZ gene. A375 Melanoma cell lines were transfected in triplicate (Fugene 6, Roche) with 5 μg plasmid DNA of: […] Negative control sequence is based on cel-miR-67, mature sequence: […] been confirmed to have minimal sequence identity with miRNAs in human, mouse and rat or E) no mimic. […]

[5] = system: FGF2; test: beta gal target cleavage assay, FGF2; settings: pcDNA6/LacZ/FGF2; data not shown
Description: as §1

Row | Substance | beta-galactosidase activity, SLC37A3 target construct [1] | target binding in KCNMA1 (beta gal target cleavage assay) [2] | beta-galactosidase activity, RAB22A target construct [3] | beta-galactosidase activity, TCF-12 target construct [4] | targeting of FGF2 (target cleavage assay) [5]
1 | miR-211: miRIDIAN microRNA Mimic (Dharmacon) for miR-211, UUCCCUUUGUCAUCCUUCGCCU (commercial miRIDIAN mimic, chemistry not given here; listed as Homo sapiens) | decreased | confirmed | decreased | statistically significant reduction in fold change | –
2 | miR-16: miRIDIAN microRNA Mimic (Dharmacon) for miR-16, UAGCAGCACGUAAAUAUUGGCG (commercial miRIDIAN mimic, chemistry not given here; listed as Homo sapiens) | – | – | – | – | confirmed
